Assay results as given in publication PMC9157009, “Protein proximity networks and functional evaluation of the casein kinase 1 gamma family reveal unique roles for CK1γ3 in WNT signaling” (The Journal of Biological Chemistry, 2022).
Where “and” joins values, the source holds several entries; their conditions need not be identical. Identical values can stand only once. Each block holds one molecule with its values, some of them ahead of it.

What was measured:
[1] = biological target: T1, DYRK1B (Homo sapiens, UniProt Q9Y463); experiment: scanMAX binding assay, DYRK1B; details: Percent of Control; legend and method: 1 μM; read-out: DYRK1B PoC @ 1 µM
T1 construct: purchased Eurofins DiscoverX Corporation
Text: (§1) As described previously, this commercial assay platform screens against 403 WT human kinases in binding assays and provides PoC values ([73]).

[2] = biological target: T2, DYRK2 (Homo sapiens, UniProt Q92630); experiment: scanMAX binding assay, DYRK2; details: Percent of Control; legend and method: 1 μM; read-out: DYRK2 PoC @ 1 µM
T2 construct: purchased Eurofins DiscoverX Corporation
Text: as §1

[3] = biological target: T3, CK1γ1 (Homo sapiens, UniProt Q9HCP0); experiment: scanMAX binding assay, CK1γ1; details: Percent of Control; legend and method: 1 μM; read-out: CK1γ1 PoC @ 1 µM
T3 construct: purchased Eurofins
Text: as §1

[4] = biological target: T4, CDK7 (Homo sapiens, UniProt P50613); experiment: scanMAX binding assay, CDK7; details: Percent of Control; legend and method: 1 μM; read-out: CDK7 PoC @ 1 µM
T4 construct: purchased Eurofins DiscoverX Corporation
Text: as §1

[5] = biological target: T5, PCTK1 (Homo sapiens, UniProt Q00536); experiment: scanMAX binding assay, PCTK1; details: Percent of Control; legend and method: 1 μM; read-out: PCTK1 PoC @ 1 µM
T5 construct: purchased Eurofins DiscoverX Corporation
Text: as §1

[6] = biological target: T6, GSK3β (Homo sapiens, UniProt P49841); experiment: scanMAX binding assay, GSK3β; details: Percent of Control; legend and method: 1 μM; read-out: GSK3β PoC @ 1 µM
T6 construct: purchased Eurofins DiscoverX Corporation
Text: as §1

[7] = biological target: T3, CK1γ1; experiment: Eurofins kinase enzymatic radiometric assay, CK1γ1; format: biochemical; details: Km = ATP, 9-pt curve in duplicate
Text: (§2) Details related to the substrate used, protein constructs, controls, and assay protocol for each kinase assay are included on the Eurofins website: https://www.eurofinsdiscoveryservices.com/.

[8] = biological target: T7, PCTK3 (Homo sapiens, UniProt Q07002); experiment: scanMAX binding assay, PCTK3; details: Percent of Control; legend and method: 1 μM; read-out: PCTK3 PoC @ 1 µM
T7 construct: purchased Eurofins DiscoverX Corporation
Text: as §1

[9] = biological target: T8, CAMK1B (Homo sapiens, UniProt Q6P2M8); experiment: scanMAX binding assay, CAMK1B; details: Percent of Control; legend and method: 1 μM; read-out: CAMK1B PoC @ 1 µM
T8 construct: purchased Eurofins DiscoverX Corporation
Text: as §1

[10] = biological target: T9, CK1γ2 (Homo sapiens, UniProt P78368); experiment: scanMAX binding assay, CK1γ2; details: Percent of Control; legend and method: 1 μM; read-out: CK1γ2 PoC @ 1 µM
T9 construct: purchased Eurofins
Text: as §1

[11] = biological target: T10, ERK8 (Homo sapiens, UniProt Q8TD08); experiment: scanMAX binding assay, ERK8; details: Percent of Control; legend and method: 1 μM; read-out: ERK8 PoC @ 1 µM
T10 construct: purchased Eurofins DiscoverX Corporation
Text: as §1

[12] = biological target: T11, ICK (Homo sapiens, UniProt Q9UPZ9); experiment: scanMAX binding assay, ICK; details: Percent of Control; legend and method: 1 μM; read-out: ICK PoC @ 1 µM
T11 construct: purchased Eurofins DiscoverX Corporation
Text: as §1

[13] = biological target: T12, CDKL5 (Homo sapiens, UniProt O76039); experiment: scanMAX binding assay, CDKL5; details: Percent of Control; legend and method: 1 μM; read-out: CDKL5 PoC @ 1 µM
T12 construct: purchased Eurofins DiscoverX Corporation
Text: as §1

[14] = test system: BAR reporter (β-catenin-dependent WNT signaling); experiment: BAR luciferase transcriptional reporter assay in HEK293T B/R cells; format: cell-based, human; details: for activation of the BAR reporter: HEK293T B/R cells, 10 μM compound for 18 h, compared with dimethyl sulfoxide and FP1
Protocol: All luciferase reporter assays were performed as previously described ([15], [43]). […] In both loss-of-function and gain-of-function experiments, treatments (WNT3A CM or drug) were added 18 h before harvesting cells. Conditions were plated in triplicate, and Renilla normalized values were averaged across triplicates to yield the data presented and standard error. Each assay was repeated in biological triplicate, unless otherwise stated. Firefly luciferase and the Renilla control were detected using the Promega Dual-Luciferase Reporter Assay System per the manufacturer’s protocol (Promega; catalog no.: E1960). Plates were read on the Victor Nivo plate reader (PerkinElmer).

[15] = biological target: T13, PCTK2 (Homo sapiens, UniProt Q00537); experiment: scanMAX binding assay, PCTK2; details: Percent of Control; legend and method: 1 μM; read-out: PCTK2 PoC @ 1 µM
T13 construct: purchased Eurofins DiscoverX Corporation
Text: as §1

[16] = biological target: T14, CK1γ3 (Homo sapiens, UniProt Q9Y6M4); experiment: scanMAX binding assay, CK1γ3; details: Percent of Control; legend and method: 1 μM; read-out: CK1γ3 PoC @ 1 µM
T14 construct: purchased Eurofins
Text: as §1

[17] = biological target: T15, DCAMKL3 (Homo sapiens, UniProt Q9C098); experiment: scanMAX binding assay, DCAMKL3; details: Percent of Control; legend and method: 1 μM; read-out: DCAMKL3 PoC @ 1 µM
T15 construct: purchased Eurofins DiscoverX Corporation
Text: as §1

[18] = biological target: T14, CK1γ3; experiment: Eurofins kinase enzymatic radiometric assay, CK1γ3; format: biochemical; details: Km = ATP, 9-pt curve in duplicate
Text: as §2

[19] = biological target: T16, GSK3α (Homo sapiens, UniProt P49840); experiment: scanMAX binding assay, GSK3α; details: Percent of Control; legend and method: 1 μM; read-out: GSK3α PoC @ 1 µM
T16 construct: purchased Eurofins DiscoverX Corporation
Text: as §1

[20] = biological target: T17, PFTK1 (Homo sapiens, UniProt O94921); experiment: scanMAX binding assay, PFTK1; details: Percent of Control; legend and method: 1 μM; read-out: PFTK1 PoC @ 1 µM
T17 construct: purchased Eurofins DiscoverX Corporation
Text: as §1

[21] = biological target: T18, CK1γ2 (NLuc-CK1γ2) (Homo sapiens, UniProt P78368); experiment: NanoBRET cellular target engagement assay, NLuc-CK1γ2 in HEK293T cells; format: cell-based; details: live HEK293T cells, 0.5 μM tracer K-10
T18 construct: host or cells: HEK293T
Protocol: (§3) HEK293T cells (hypotriploid, fetal) were purchased from ATCC. These cells were grown in Dulbecco’s modified Eagle’s medium (Gibco) supplemented with 10% (v/v) fetal bovine serum (Corning). They were incubated in 5% CO2 at 37 °C and passaged every 72 h with trypsin and not allowed to reach confluency. Constructs for NanoBRET measurements of CK1γ2 (NLuc-CK1γ2) and GSK3β (NLuc-GSK3β) were kindly provided by Promega. NanoBRET assays were carried out as described previously ([74]). Preferred NLuc orientations, both N-terminal in this case, are indicated in parentheses after each construct. Assays were carried out in dose–response as described by the manufacturer using 0.5 μM of tracer K-10 for CK1γ2 and 0.063 μM of tracer K-8 for GSK3β. Two biological replicates were executed with two technical replicates to produce the graphs with error bars shown in Figures 6E, 7E, 8, A and B. Tracer titration curves for these kinases that motivated our tracer selection and working concentration can be found on the Promega website.

[22] = biological target: T19, GSK3β (NLuc-GSK3β) (Homo sapiens, UniProt P49841); experiment: NanoBRET cellular target engagement assay, NLuc-GSK3β in HEK293T cells; format: cell-based; details: live HEK293T cells, 0.063 μM tracer K-8; read-out: NL-GSK3β NanoBRET IC50
T19 construct: host or cells: HEK293T
Protocol: as §3

[23] = test system: β-catenin-dependent transcription; details: siRNA screen, BAR firefly luciferase reporter, ref Biechele et al, cited from earlier work; for Average BAR firefly Luciferase (Raw): raw signal per siRNA target

T3 sequence (Q9HCP0 whole entry): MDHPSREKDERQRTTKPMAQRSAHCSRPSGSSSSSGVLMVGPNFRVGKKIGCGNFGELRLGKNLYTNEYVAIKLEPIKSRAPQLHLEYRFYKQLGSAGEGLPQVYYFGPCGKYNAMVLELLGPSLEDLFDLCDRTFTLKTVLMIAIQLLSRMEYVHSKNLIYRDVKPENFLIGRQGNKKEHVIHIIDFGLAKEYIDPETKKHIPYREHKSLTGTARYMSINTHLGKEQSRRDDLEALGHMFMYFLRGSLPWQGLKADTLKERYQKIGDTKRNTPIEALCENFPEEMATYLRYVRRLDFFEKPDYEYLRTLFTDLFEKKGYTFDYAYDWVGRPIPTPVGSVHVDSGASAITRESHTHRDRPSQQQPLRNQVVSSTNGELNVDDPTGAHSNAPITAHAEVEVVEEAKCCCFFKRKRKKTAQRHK
T14 sequence (Q9Y6M4 whole entry): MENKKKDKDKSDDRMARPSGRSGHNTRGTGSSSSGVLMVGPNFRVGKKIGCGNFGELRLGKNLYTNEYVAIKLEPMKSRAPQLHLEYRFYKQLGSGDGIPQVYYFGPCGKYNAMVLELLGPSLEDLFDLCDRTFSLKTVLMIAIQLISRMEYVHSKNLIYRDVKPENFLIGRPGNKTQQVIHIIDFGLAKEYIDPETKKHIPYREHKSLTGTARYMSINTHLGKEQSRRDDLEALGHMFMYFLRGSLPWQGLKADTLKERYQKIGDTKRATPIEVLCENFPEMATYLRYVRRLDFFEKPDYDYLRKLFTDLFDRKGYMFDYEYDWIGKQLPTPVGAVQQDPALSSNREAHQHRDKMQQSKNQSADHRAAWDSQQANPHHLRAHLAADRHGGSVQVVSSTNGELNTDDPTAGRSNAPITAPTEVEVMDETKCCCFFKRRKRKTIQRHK
T2 sequence (Q92630 whole entry): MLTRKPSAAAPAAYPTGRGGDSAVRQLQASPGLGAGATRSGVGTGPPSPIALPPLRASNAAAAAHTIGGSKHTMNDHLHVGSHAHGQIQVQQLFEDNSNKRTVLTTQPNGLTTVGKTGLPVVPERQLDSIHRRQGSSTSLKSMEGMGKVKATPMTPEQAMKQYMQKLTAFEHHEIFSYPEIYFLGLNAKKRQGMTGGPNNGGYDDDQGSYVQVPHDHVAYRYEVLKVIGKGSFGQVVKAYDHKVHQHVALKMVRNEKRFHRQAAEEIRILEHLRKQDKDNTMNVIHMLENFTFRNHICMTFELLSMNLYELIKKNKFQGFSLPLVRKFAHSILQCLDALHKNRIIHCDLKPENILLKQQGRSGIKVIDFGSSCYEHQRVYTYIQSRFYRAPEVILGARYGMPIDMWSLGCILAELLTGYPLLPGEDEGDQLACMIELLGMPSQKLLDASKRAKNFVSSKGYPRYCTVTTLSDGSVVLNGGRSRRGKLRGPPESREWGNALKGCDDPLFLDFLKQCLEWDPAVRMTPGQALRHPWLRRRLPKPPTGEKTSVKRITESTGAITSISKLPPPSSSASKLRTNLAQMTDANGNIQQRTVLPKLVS
T1 sequence (Q9Y463 whole entry): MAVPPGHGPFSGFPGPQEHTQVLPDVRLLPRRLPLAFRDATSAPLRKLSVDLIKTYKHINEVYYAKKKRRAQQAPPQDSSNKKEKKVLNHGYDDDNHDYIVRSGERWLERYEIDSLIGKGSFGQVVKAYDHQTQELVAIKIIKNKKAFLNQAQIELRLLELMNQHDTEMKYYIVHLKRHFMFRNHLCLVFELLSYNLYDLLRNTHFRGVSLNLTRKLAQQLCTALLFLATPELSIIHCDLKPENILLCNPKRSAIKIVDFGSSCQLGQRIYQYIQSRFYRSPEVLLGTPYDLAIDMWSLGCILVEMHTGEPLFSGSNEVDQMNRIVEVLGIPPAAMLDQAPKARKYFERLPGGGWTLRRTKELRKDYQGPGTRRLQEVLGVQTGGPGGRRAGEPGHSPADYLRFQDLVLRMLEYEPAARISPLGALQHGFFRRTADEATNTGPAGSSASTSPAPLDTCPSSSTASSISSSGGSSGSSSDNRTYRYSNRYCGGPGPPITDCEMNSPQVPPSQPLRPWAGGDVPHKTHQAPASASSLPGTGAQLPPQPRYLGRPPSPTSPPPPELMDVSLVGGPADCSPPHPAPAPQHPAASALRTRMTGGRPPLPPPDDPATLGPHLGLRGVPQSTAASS
T4 sequence (P50613 whole entry): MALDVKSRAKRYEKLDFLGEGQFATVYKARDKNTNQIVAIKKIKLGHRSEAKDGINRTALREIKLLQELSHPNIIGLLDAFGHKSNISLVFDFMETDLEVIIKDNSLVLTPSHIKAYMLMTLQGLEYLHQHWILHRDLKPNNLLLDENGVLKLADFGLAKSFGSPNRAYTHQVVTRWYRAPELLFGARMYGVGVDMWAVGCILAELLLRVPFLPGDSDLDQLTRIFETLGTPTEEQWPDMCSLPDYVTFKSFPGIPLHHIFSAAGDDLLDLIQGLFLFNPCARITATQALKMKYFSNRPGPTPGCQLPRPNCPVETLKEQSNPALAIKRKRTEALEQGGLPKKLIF
T7 sequence (Q07002 whole entry): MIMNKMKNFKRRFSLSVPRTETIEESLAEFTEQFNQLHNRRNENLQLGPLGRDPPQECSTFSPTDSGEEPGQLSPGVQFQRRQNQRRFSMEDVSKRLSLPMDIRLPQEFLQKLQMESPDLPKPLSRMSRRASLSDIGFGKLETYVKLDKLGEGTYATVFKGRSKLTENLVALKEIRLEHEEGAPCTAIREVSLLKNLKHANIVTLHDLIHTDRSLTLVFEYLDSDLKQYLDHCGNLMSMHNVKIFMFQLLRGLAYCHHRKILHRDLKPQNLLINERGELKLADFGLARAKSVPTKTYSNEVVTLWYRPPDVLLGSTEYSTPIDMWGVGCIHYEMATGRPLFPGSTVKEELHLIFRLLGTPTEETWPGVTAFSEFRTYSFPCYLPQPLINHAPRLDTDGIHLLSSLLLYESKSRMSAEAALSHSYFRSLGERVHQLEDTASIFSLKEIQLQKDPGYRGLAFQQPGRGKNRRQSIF
T12 sequence (O76039 whole entry): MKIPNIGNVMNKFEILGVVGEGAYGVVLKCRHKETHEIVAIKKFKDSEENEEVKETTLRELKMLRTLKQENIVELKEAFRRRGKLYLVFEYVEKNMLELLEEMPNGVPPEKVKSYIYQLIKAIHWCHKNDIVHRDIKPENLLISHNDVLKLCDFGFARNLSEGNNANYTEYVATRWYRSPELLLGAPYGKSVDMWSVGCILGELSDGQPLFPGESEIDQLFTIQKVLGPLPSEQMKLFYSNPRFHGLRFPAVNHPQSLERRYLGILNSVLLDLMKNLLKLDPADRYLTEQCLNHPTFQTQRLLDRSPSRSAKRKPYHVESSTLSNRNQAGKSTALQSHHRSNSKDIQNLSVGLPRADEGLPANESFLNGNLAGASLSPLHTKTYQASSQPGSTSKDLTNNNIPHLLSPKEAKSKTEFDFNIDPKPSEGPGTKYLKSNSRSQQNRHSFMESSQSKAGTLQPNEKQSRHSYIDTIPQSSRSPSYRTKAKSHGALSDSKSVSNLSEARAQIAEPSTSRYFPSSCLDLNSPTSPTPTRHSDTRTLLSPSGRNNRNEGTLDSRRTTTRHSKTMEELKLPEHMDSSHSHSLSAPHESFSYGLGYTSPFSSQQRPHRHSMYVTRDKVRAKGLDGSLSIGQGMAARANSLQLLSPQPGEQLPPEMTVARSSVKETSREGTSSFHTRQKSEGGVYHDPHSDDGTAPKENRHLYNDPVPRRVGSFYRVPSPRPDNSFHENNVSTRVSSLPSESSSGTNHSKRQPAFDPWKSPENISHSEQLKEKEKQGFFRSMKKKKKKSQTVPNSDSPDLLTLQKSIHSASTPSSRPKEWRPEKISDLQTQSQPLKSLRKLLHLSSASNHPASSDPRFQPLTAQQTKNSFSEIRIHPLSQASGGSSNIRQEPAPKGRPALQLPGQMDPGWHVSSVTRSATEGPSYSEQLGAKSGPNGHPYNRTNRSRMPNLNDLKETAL
T15 sequence (Q9C098 whole entry): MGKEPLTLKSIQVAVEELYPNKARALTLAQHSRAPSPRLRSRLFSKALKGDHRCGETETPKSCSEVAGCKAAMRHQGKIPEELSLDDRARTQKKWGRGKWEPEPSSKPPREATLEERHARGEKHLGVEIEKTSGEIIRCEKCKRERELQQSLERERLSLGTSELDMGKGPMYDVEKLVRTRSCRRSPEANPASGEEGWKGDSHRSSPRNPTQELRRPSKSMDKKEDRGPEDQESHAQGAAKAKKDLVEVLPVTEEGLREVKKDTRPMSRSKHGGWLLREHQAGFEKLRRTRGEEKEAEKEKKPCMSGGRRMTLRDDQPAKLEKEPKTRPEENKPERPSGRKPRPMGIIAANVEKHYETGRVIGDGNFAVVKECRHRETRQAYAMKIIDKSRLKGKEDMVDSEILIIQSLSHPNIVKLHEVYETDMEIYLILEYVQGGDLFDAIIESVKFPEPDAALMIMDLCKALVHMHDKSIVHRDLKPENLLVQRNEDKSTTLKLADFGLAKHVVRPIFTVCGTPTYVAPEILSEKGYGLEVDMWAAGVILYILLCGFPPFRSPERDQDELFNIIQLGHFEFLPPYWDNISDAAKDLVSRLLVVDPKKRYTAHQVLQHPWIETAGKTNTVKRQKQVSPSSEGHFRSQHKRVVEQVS
T17 sequence (O94921 whole entry): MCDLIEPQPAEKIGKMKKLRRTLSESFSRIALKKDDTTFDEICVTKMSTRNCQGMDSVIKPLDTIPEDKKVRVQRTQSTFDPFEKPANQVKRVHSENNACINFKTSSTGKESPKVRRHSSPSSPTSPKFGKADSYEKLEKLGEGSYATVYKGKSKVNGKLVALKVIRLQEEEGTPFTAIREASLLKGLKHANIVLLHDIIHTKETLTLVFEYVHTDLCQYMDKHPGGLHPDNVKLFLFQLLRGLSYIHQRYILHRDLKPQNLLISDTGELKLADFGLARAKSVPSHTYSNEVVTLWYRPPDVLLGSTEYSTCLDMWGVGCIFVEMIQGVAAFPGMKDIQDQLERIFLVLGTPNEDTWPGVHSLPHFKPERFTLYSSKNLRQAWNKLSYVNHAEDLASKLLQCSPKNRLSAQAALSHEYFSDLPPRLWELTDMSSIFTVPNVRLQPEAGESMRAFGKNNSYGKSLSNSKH

remaining binding at 1 µM [1]: 6% | remaining binding at 1 µM [2]: 7.2% | remaining binding at 1 µM [3]: 5.2% | remaining binding at 1 µM [4]: 1.2% | remaining binding at 1 µM [5]: 0.2% | remaining binding at 1 µM [6]: 0.4% | IC50 [7]: ≤ 275 nM and 275 nM | remaining binding at 1 µM [8]: 1.2% | remaining binding at 1 µM [9]: 0% | remaining binding at 1 µM [10]: 1% | remaining binding at 1 µM [12]: 1.6% | remaining binding at 1 µM [13]: 0.2% | remaining binding at 1 µM [15]: 1.4% | remaining binding at 1 µM [16]: 3.3% | remaining binding at 1 µM [17]: 1.9% | IC50 [18]: ≤ 275 nM and 168 nM | remaining binding at 1 µM [19]: 0.9% | remaining binding at 1 µM [20]: 3.5%
Molecule: CN(C)CC(=O)Nc1n[nH]c2ccc(-c3cn(Cc4ccccc4)nn3)cc12 [AKI00000062a]
remaining binding at 1 µM [11]: 2.5% | activation of the BAR reporter [14]: robustly activated

NL-CK1γ2 NanoBRET IC50 [21]: inactive | IC50 [22]: 0.23 nM
Molecule: Cc1cc(Nc2cc(C3CC3)[nH]n2)nc(Nc2ccc(CC#N)cc2)n1 [APY69, reference compound]

Molecule: Cc1cc(-c2ccc(CC(=O)Nc3ccc(-c4cccnc4)cc3)cc2)ccn1 [C59, reference compound]
BAR activation by CK1γ3 overexpression in the absence of WNT3A CM ([14]; HEK293T B/R cells transfected 14 h, 10 μM C59 for 18 h): blocked this activation

Molecule: Cc1c[nH]c(-c2cnc(NCCNc3ccc(C#N)cn3)nc2-c2ccc(Cl)cc2Cl)n1 [CHIR99021, reference compound]
activation of the BAR reporter [14]: robustly activated

Molecule: EPHA2
Fold over control siRNA [23]: 0.4994 | Average BAR firefly Luciferase (Raw) [23]: 13210

Molecule: ERBB2
Fold over control siRNA [23]: 3.138 | Average BAR firefly Luciferase (Raw) [23]: 83000
